“And” between values parts separate entries of the source, which are not always exact repeats. Identical values can stand only once.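 Where inhibition never reached the appropriate level, the endpoint shown equals the highest concentration tested. Otherwise, values were interpolated linearly from a five-concentration, 48-hour dose response in 96-well plates. The concentration for 50% growth inhibition is given as GI50. TGI marks complete inhibition of growth.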
Tests used:
Assay in all cases: NCI tumour cell line growth inhibition, 48 h
HL-60(TB) leukemia = tested on: HL-60(TB) leukemia
MALME-3M melanoma = tested on: MALME-3M melanoma
SF-295 CNS = tested on: SF-295 CNS
A498 renal = tested on: A498 renal
CAKI-1 renal = tested on: CAKI-1 renal
NCI-H522 lung = tested on: NCI-H522 lung
PC-3 prostate = tested on: PC-3 prostate
SF-539 CNS = tested on: SF-539 CNS
T-47D breast = tested on: T-47D breast
SNB-78 CNS = tested on: SNB-78 CNS

Row | SMILES | TGI (HL-60(TB) leukemia) | TGI (MALME-3M melanoma) | TGI (SF-295 CNS) | TGI (A498 renal) | TGI (CAKI-1 renal) | TGI (NCI-H522 lung) | TGI (PC-3 prostate) | TGI (SF-539 CNS) | TGI (T-47D breast) | TGI (SNB-78 CNS) | GI50 (NCI-H522 lung) | GI50 (PC-3 prostate) | GI50 (SNB-78 CNS) | GI50 (A498 renal) | GI50 (CAKI-1 renal) | GI50 (HL-60(TB) leukemia) | GI50 (MALME-3M melanoma) | GI50 (SF-539 CNS) | GI50 (T-47D breast) | GI50 (SF-295 CNS)
1 | CCCCCCCSc1nc2c(C(=O)OCC)ncn2c2ccccc12 | > 100 µM | > 100 µM | > 100 µM | – | – | – | – | – | – | – | – | – | – | – | – | – | – | – | – | –
2 | O=NC1C(Cl)C2CC1C1C(Br)C(Br)CC21 (stereo not given) | > 100 µM | > 100 µM | > 100 µM | > 100 µM | > 100 µM | > 100 µM | > 100 µM | > 100 µM | > 100 µM | – | – | – | – | – | – | – | – | – | – | –
3 | CN1CCCCC1CCN1CCCCC1 (stereo not given) | > 100 µM | > 100 µM | > 100 µM | > 100 µM | > 100 µM | > 100 µM | > 100 µM | – | > 100 µM | – | – | – | – | – | – | – | – | – | – | –
4 | C/C=C/[P+](c1ccccc1)(c1ccccc1)c1ccccc1 | 2.78 µM | 13.6 µM | 12 µM | 41.3 µM | > 100 µM | 10.2 µM | > 63.8 µM | 16.7 µM | 1.43 µM | – | – | – | – | – | – | – | – | – | – | –
5 | Cc1sc(Cc2ccccc2)nc1-c1ccc(N)cc1 | > 100 µM | 90.2 µM | > 100 µM | > 100 µM | 83.8 µM | 38.7 µM | 89.7 µM | – | – | – | – | – | – | – | – | – | – | – | – | –
6 | CCOC(=O)/C(Cl)=C(\C)Nc1nc2c(ccc3ccccc32)s1 | > 100 µM | > 100 µM | > 100 µM | > 100 µM | > 100 µM | 70.9 µM | > 100 µM | – | 43.6 µM | – | – | – | – | – | – | – | – | – | – | –
7 | CN(C)CCCNc1ccc2ncn3c4ccccc4c(=O)c1c23 | 21.2 µM | 49.2 µM | 39 µM | – | – | > 100 µM | – | 90.8 µM | – | 78.7 µM | – | – | – | – | – | – | – | – | – | –
8 | CC12CCC(C(=O)OC1=O)C(C)(C)O2 (stereo not given) | – | > 100 µM | > 100 µM | – | > 100 µM | > 100 µM | > 100 µM | > 100 µM | > 100 µM | – | – | – | – | – | – | – | – | – | – | –
9 | O=S(=O)(Sc1ccc(Cl)cc1)c1ccc(Cl)cc1 | 33 µM | 48.9 µM | 27.2 µM | 34.5 µM | 40.5 µM | 31.1 µM | – | 27.7 µM | – | 45.9 µM | – | – | – | – | – | – | – | – | – | –
10 | CC(=O)C(O)N1C(=O)C=CC1=O (stereo not given) | – | – | – | > 25 µM and 31.3 µM and 39 µM | – | – | – | – | > 25 µM | 37 µM and 54.9 µM | > 25 µM and 13.5 µM | 2470 µM | 19.9 µM | – | – | – | – | – | – | –
11 | Cc1cc(NCc2cc(Nc3ccnc4cc(Cl)ccc34)ccc2F)nc(N2CCCC2)n1 | – | – | – | 3.32 µM | 2.98 µM | – | – | – | – | – | – | – | – | 1.44 µM | 1.47 µM | – | – | – | – | –
12 | COc1ccc(N2C(=O)C3c4[nH]c5c(C)cccc5c4C4CCC(C(C)(C)C)CC4C3C2=O)cc1 (stereo not given) | > 10 µM | > 10 µM | > 10 µM | > 10 µM | > 10 µM | > 10 µM | > 10 µM | > 10 µM | > 10 µM | – | – | – | – | – | – | – | – | – | – | –
13 | N#CC(c1ccccc1)c1nc2ccc(=N)cc-2n(O)c1C(C#N)c1ccccc1 (stereo not given) | > 100 µM | > 100 µM | > 100 µM | > 100 µM | > 100 µM | > 100 µM | – | > 100 µM | – | > 100 µM | – | – | – | – | – | – | – | – | – | –
14 | CN(C)CCNc1nc(-c2ccc3ccccc3c2)nc2nc[nH]c12 | > 100 µM | 16.6 µM | 26.9 µM | – | 20.6 µM | 6.22 µM | 18.4 µM | – | 29.7 µM | – | – | – | – | – | – | – | – | – | – | –
15 | C[C@@H]1CC[C@H]2C(COCCOCC3=C(C(F)(F)F)O[C@@H]4O[C@@]5(C)CC[C@H]6[C@H](C)CC[C@@H]3[C@@]46OO5)=C(C(F)(F)F)O[C@@H]3O[C@@]4(C)CC[C@@H]1[C@]32OO4 | – | 9.26 µM | – | > 96.9 µM | > 12.9 µM | > 100 µM | > 100 µM | > 69.8 µM | > 94.6 µM | – | 2.9 µM | < 0.01 µM | – | > 20.2 µM | 0.304 µM | < 0.0213 µM | < 0.01 µM | 0.0264 µM | < 0.014 µM | –
16 | CC1=C2C(=O)c3ccccc3C(=O)[C@H]2[C@H]2CCO[C@H]2O1 | 61.1 µM | 35.9 µM | 48.9 µM | > 100 µM | 46 µM | 32 µM | > 100 µM | 43.9 µM | > 100 µM | – | – | – | – | – | – | – | – | – | – | –
17 | Cc1ccc(Oc2ccc(C)cc2[N+](=O)[O-])cc1 | 79.7 µM | > 100 µM | > 100 µM | > 100 µM | – | – | – | > 100 µM | – | 95 µM | – | – | – | – | – | – | – | – | – | –
18 | O=c1oc2ccccc2c2c(=O)c3ccc(OC/C(=N/O)c4ccc(Cl)cc4)cc3oc12 | 28.4 µM | – | 7.1 µM | 15.6 µM | 24 µM | – | 24.5 µM | 23.8 µM | 88.4 µM | – | – | – | – | – | – | – | – | – | – | –
19 | Cc1ccc(S(=O)(=O)NCCSCCNS(=O)(=O)c2ccc(C)cc2)cc1 | – | – | > 100 µM | > 100 µM | – | > 100 µM | > 100 µM | – | > 100 µM | – | – | – | – | – | – | – | – | – | – | –
20 | COc1ccc([C@@H]2ON(C)[C@H]3CN(C)C(=O)[C@@H]23)cc1 | > 100 µM | – | > 100 µM | – | > 100 µM | > 100 µM | > 100 µM | – | > 100 µM | – | – | – | – | – | – | – | – | – | – | –
21 | O=C1c2c(c3c4ccccc4[nH]c3c3ccc4ccccc4c23)C(=O)N1CCN1CCCCC1 | 3.31 µM | 2.92 µM | – | 9.85 µM | – | 5.36 µM | 24.7 µM | 3.21 µM | 7.87 µM | – | 1.5 µM | 1.68 µM | – | 1.18 µM | – | 1.07 µM | 1.33 µM | 1.41 µM | 1.61 µM | –
22 | Cc1c2cc[n+](CCN3CCCCC3)cc2c(C)c2c1[nH]c1ccc(O)cc12 | 26.5 µM and > 40.4 µM | 25.9 µM and 19.2 µM | 18.4 µM and > 100 µM | 48 µM and 30.5 µM | 24.3 µM and > 100 µM | 53.5 µM and 16.2 µM | 28.6 µM | 34.5 µM and > 58.8 µM | 12.1 µM | 64.1 µM | – | – | – | 3.48 µM | 21.1 µM | 3.67 µM | 3.17 µM | 7.38 µM | – | 5.43 µM
23 | CCCCCCNC(=O)c1cnc(Cl)cn1 | 47.8 µM | 31.1 µM | 39.4 µM | – | 2.39 µM | 0.552 µM | 22.8 µM | 35.4 µM | > 100 µM | – | – | – | – | – | – | – | – | – | – | –
24 | Cc1ccccc1N=Nc1ccc(N=Nc2c(O)ccc3ccccc23)c(C)c1 | – | > 100 µM | > 100 µM | > 100 µM | > 100 µM | > 100 µM | > 100 µM | – | > 100 µM | – | – | – | – | – | – | – | – | – | – | –
25 | NC(N)=N/N=C/c1c(-c2ccccc2)nc2n1ccc1nc(-c3ccccc3)c(/C=N/N=C(N)N)n12 | > 100 µM | 84 µM | > 100 µM | > 100 µM | > 100 µM | > 100 µM | > 100 µM | > 100 µM | > 100 µM | – | – | – | – | – | – | – | – | – | – | –
26 | O=c1ccc2cc(O)c(O)cc2o1 | > 100 µM | > 100 µM | > 100 µM | > 100 µM | > 100 µM | > 100 µM | > 100 µM | > 100 µM | > 100 µM | – | – | – | – | – | – | – | – | – | – | –

Source: PubChem BioAssay (NCI)
